Laboratory results taken from US20040044000A1, “Isoquinoline derivatives as matrix metalloproteinase inhibitors” (priority 2002, published 2004).

How the values were obtained:
Format in all cases: biochemical
[1] = biological target: MMP-14 catalytic domain (MMP-14CD) (Homo sapiens, UniProt P50281); experiment: Inhibition of MMP-14 catalytic domain (thiopeptolide substrate hydrolysis)
Description: (§1) The assays measure the amount by which a test compound reduces the hydrolysis of a thiopeptolide substrate catalyzed by a matrix metalloproteinase enzyme. Such assays are described in detail by Ye et al., in Biochemistry, 1992;31(45):11231-11235, which is incorporated herein by reference. One such assay is described below in Biological Method 1.
(§2) Thiopeptolide substrates show virtually no decomposition or hydrolysis at or below neutral pH in the absence of a matrix metalloproteinase enzyme. A typical thiopeptolide substrate commonly utilized for assays is Ac-Pro-Leu-Gly-thioester-Leu-Leu-Gly-OEt. A 100 μL assay mixture will contain 50 mM of N-2-hydroxyethylpiperazine-N′-2-ethanesulfonic acid buffer (“HEPES,” pH 7.0), 10 mM CaCl2, 100 μM thiopeptolide substrate, and 1 mM 5,5′-dithio-bis-(2-nitro-benzoic acid) (DTNB). The thiopeptolide substrate concentration may be varied, for example from 10 to 800 μM to obtain Km and Kcat values. The change in absorbance at 405 nm is monitored on a Thermo Max microplate reader (molecular Devices, Menlo Park, Calif.) at room temperature (22° C.). The calculation of the amount of hydrolysis of the thiopeptolide substrate is based on E412=13600 M^−1 cm^−1 for the DTNB-derived product 3-carboxy-4-nitrothiophenoxide. Assays are carried out with and without matrix metalloproteinase inhibitor compounds, and the amount of hydrolysis is compared for a determination of inhibitory activity of the test compounds.
(§3) Test compounds were evaluated at various concentrations in order to determine their respective IC50 values, the micromolar concentration of compound required to cause a 50% inhibition of catalytic activity of the respective enzyme.
(§4) The test described above for the inhibition of MMP-13 may also be adapted and used to determine the ability of the compounds of Formula I to inhibit the matrix metalloproteases MMP-1, MMP-2, MMP-3, MMP-7, MMP-9, MMP-12 and MMP-14.

[2] = biological target: T1, MMP-17 catalytic domain (MMP-17CD) (Homo sapiens, UniProt Q9ULZ9); experiment: Inhibition of MMP-17 catalytic domain (thiopeptolide substrate hydrolysis)
T1 construct: MMP-3 catalytic domain, MMP-12 catalytic domain, MMP-14 catalytic domain, and MMP-17 catalytic domain
T1 sequence (Q9ULZ9 126-295 limits assumed): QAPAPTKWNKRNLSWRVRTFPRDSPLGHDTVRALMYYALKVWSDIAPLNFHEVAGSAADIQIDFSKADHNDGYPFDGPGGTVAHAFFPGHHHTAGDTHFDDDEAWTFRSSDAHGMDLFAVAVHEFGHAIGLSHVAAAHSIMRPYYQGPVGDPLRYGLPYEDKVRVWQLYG
Description: as §1, §2, §3

[3] = biological target: T2, MMP-12 catalytic domain (MMP-12CD) (Homo sapiens, UniProt P39900); experiment: Inhibition of MMP-12 catalytic domain (thiopeptolide substrate hydrolysis)
T2 construct: MMP-3 catalytic domain, MMP-12 catalytic domain, MMP-14 catalytic domain, and MMP-17 catalytic domain
T2 sequence (P39900 106-263 limits assumed, species assumed): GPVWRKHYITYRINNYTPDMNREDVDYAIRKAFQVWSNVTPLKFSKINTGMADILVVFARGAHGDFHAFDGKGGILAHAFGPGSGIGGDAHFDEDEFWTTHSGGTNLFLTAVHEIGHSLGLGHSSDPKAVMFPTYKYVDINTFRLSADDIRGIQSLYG
Description: as §1, §2, §3, §4

[4] = biological target: MMP-3 catalytic domain (MMP-3CD) (Homo sapiens, UniProt P08254); experiment: Inhibition of MMP-3 catalytic domain (thiopeptolide substrate hydrolysis, MES pH 6.0)
Chain of MMP-3 catalytic domain (MMP-3CD) (P08254 100-272 limits assumed, species assumed): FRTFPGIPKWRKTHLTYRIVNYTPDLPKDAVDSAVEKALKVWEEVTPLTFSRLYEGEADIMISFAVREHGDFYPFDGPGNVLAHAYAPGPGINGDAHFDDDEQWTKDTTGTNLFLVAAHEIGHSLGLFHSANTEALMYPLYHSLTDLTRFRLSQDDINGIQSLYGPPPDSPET
Description: as §1, §2, §3
It should be appreciated that the assay buffer used with MMP-3CD was 50 mM N-morpholinoethane sulfonate (“MES”) at pH 6.0 rather than the HEPES buffer at pH 7.0 described above.

[5] = biological target: T3, MMP-13 catalytic domain (MMP-13CD) (Homo sapiens, UniProt P45452); experiment: Inhibition of MMP-13 catalytic domain (thiopeptolide substrate hydrolysis); conditions: Biological Table 1; read-out: MMP-13CD IC50
T3 construct: use the catalytic domain of the MMP-13 enzyme, namely matrix metalloproteinase-13 catalytic domain (“MMP-13CD”), rather than the corresponding full-length enzyme
Summary of the method: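 Catalytic domain of MMP-13 (MMP-13CD) with 100 μM Ac-Pro-Leu-Gly-thioester-Leu-Leu-Gly-OEt in 50 mM HEPES pH 7.0, 10 mM CaCl2, 1 mM DTNB at 22° C. Hydrolysis followed by absorbance at 405 nm; IC50 (μM) from multiple compound concentrations.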

| IC50 [1] [µM] | IC50 [2] [µM] | IC50 [3] [µM] | IC50 [4] [µM] | IC50 [5] [µM] | SMILES |
| --- | --- | --- | --- | --- | --- |
| > 100 | > 30 | > 10 | > 100 | 0.091 | COc1cc(CNC(=O)c2ccc3ccn(Cc4ccc(-c5nn[nH]n5)cc4)c(=O)c3c2)ccc1O [Example 65, 1-oxo-2-[4-(2H-tetrazol-5-yl)benzyl]-1,2-dihydroisoquinoline-7-carboxylic Acid 4-hydroxy-3-methoxy-benzylamide] |
| > 10 | > 10 | 6.8 | 6.2 | 0.43 | CSc1ccc(CNC(=O)c2ccc3ccn(Cc4ccc(C#N)cc4)c(=O)c3c2)cc1 [Example 40, 2-(4-cyanobenzyl)-1-oxo-1,2-dihydro-isoquinoline-7-carboxylic Acid 4-methylsulfanyl-benzylamide] |
